Measured values published in PubChem BioAssay AID256 (DTP/NCI, 2004).
Values joined by “and” are separate entries in the source; they are usually repeats but may differ in a detail not shown here. Equal values may be shown once. Toxic doses and inconclusive results are not listed. How the source made its calls: active means survival T/C of 150% or more; inactive means T/C below 125% in these data.

Tested on: CD2F1 mice, L1210 leukemia ip, survival T/C
Test: NCI In Vivo Anticancer Drug Screen. Data for tumor model L1210 Leukemia (intraperitoneal) in CD2F1 (CDF1) mice
Details: higher = longer survival
Method in brief: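 Transplantable tumor in mice; compound-treated vs vehicle-treated groups. Read-out = treated/control ratio of the measured endpoint.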

[1] = endpoint: mean survival time, dose: 100.0 mg/kg/injection, schedule: Q04DX003 (ip), vehicle: saline with Tween-80

Measured: T/C

COc1ccc(S(=O)(=O)N=N/C=C2\C=CC=CN2O)cc1OC
inactive: endpoint: median survival time, dose: 3.12 mg/kg/injection, schedule: Q01DX009 (ip), vehicle: saline with Tween-80 101 % of control | endpoint: median survival time, dose: 6.25 mg/kg/injection, schedule: Q01DX009 (ip), vehicle: saline with Tween-80 107 % of control | endpoint: median survival time, dose: 12.5 mg/kg/injection, schedule: Q01DX009 (ip), vehicle: saline with Tween-80 104 % of control | endpoint: median survival time, dose: 18.0 mg/kg/injection, schedule: Q01DX009 (ip), vehicle: saline with Tween-80 103 % of control | endpoint: median survival time, dose: 37.0 mg/kg/injection, schedule: Q01DX009 (ip), vehicle: saline with Tween-80 105 % of control | endpoint: median survival time, dose: 100.0 mg/kg/injection, schedule: Q01DX009 (ip), vehicle: saline with Tween-80 113 % of control | endpoint: median survival time, dose: 150.0 mg/kg/injection, schedule: Q01DX009 (ip), vehicle: saline with Tween-80 98 % of control | endpoint: median survival time, dose: 200.0 mg/kg/injection, schedule: Q01DX009 (ip), vehicle: saline with Tween-80 95 % of control

O=C(Nc1ccc(Cl)c(Cl)c1)Sc1ccc(Cl)cc1
inactive: [1] 105 % of control

Cc1c(N)nc(C(CC(N)=O)NCC(N)C(N)=O)nc1C(=O)NC(C(=O)NC(C)C(O)C(C)C(=O)NC(C(=O)NCCc1nc(-c2nc(C(=O)NCCCNC(C)c3ccccc3)cs2)cs1)C(C)O)C(OC1OC(CO)C(O)C(O)C1OC1OC(CO)C(O)C(OC(N)=O)C1O)c1cnc[nH]1 (stereo not drawn)
inactive: endpoint: mean survival time, dose: 0.25 mg/kg/injection, schedule: Q01DX009 (ip), vehicle: water 100 % of control | endpoint: mean survival time, dose: 0.5 mg/kg/injection, schedule: Q01DX009 (ip), vehicle: water 103 % of control and 105 % of control | endpoint: mean survival time, dose: 1.0 mg/kg/injection, schedule: Q01DX009 (ip), vehicle: saline 103 % of control | endpoint: mean survival time, dose: 1.0 mg/kg/injection, schedule: Q01DX009 (ip), vehicle: water 123 % of control and 98 % of control | endpoint: mean survival time, dose: 2.0 mg/kg/injection, schedule: Q01DX009 (ip), vehicle: saline 106 % of control | endpoint: mean survival time, dose: 2.0 mg/kg/injection, schedule: Q01DX009 (ip), vehicle: water 104 % of control and 109 % of control | endpoint: mean survival time, dose: 4.0 mg/kg/injection, schedule: Q01DX009 (ip), vehicle: saline 104 % of control | endpoint: mean survival time, dose: 4.0 mg/kg/injection, schedule: Q01DX009 (ip), vehicle: water 113 % of control and 102 % of control | endpoint: mean survival time, dose: 8.0 mg/kg/injection, schedule: Q01DX009 (ip), vehicle: saline 106 % of control | endpoint: mean survival time, dose: 8.0 mg/kg/injection, schedule: Q01DX009 (ip), vehicle: water 109 % of control | endpoint: mean survival time, dose: 16.0 mg/kg/injection, schedule: Q01DX009 (ip), vehicle: saline 101 % of control | endpoint: mean survival time, dose: 16.0 mg/kg/injection, schedule: Q01DX009 (ip), vehicle: water 113 % of control | endpoint: mean survival time, dose: 32.0 mg/kg/injection, schedule: Q01DX009 (ip), vehicle: saline 89 % of control

CCN(CC)CCN=Cc1c(O)c(O)c(C(C)C)c2cc(C)c(-c3c(C)cc4c(C(C)C)c(O)c(O)c(C=NCCN(CC)CC)c4c3O)c(O)c12
inactive: endpoint: mean survival time, dose: 100.0 mg/kg/injection, schedule: Q01DX001 (ip), vehicle: saline 90 % of control | endpoint: mean survival time, dose: 200.0 mg/kg/injection, schedule: Q01DX001 (ip), vehicle: saline 90 % of control | endpoint: mean survival time, dose: 400.0 mg/kg/injection, schedule: Q01DX001 (ip), vehicle: saline 93 % of control

Clc1ccccc1/C=C1\c2ccccc2-c2nc3ccccc3nc21
inactive: [1] 109 % of control | endpoint: mean survival time, dose: 200.0 mg/kg/injection, schedule: Q04DX003 (ip), vehicle: saline with Tween-80 103 % of control | endpoint: mean survival time, dose: 400.0 mg/kg/injection, schedule: Q04DX003 (ip), vehicle: saline with Tween-80 97 % of control
